Values of other authors, collected in patent US11472859B2, “Method and composition for treating neuronal hyper-excitabtiity” (The Regents of the University of California, priority 2016, dated 2022).
“Also recorded” adds a separate entry of the source.

Legend:
[1] = test system: brain or spinal parenchymal GABA release; settings: after systemic delivery
spasticity = settings: for anti-spasticity effect: systemic or spinal administration, clinical (and experimental animal) studies

Row | Compound | potentiation of brain or spinal parenchymal GABA release [1] | anti-spasticity effect (spasticity) | side effects (spasticity; clinical use, systemic or spinal)
1 | Cc1ccsc1C(=CCCN1CCC[C@@H](C(=O)O)C1)c1sccc1C [tiagabine] | relatively modest potentiation | only a weak or no anti-spasticity effect | 
2 | NCC(CC(=O)O)c1ccc(Cl)cc1 (stereo not shown) [baclofen] |  | most potent anti-spasticity pharmacological treatment; also recorded: effective in modulating spasticity; also recorded: potent antispasticity effect | major side effects such as general sedation and progressive tolerance development; also recorded: unwanted systemic side effects such as sedation
